Source: patent US20130143929A1, “FUNGICIDAL IMIDAZOLES” (EI DU PONT DE NEMOURS AND COMPANY, priority 2010, published 2013)
Marks after values point to notes of the source that are not given here.

Legend:
Format in all cases: in vivo
[1] = tested on: Puccinia recondite f. sp. tritici (the causal agent of wheat leaf rust); experiment: Test A: wheat leaf rust, preventive spray on wheat seedlings, visual disease rating; conditions: wheat leaf rust, preventive spray on wheat seedlings
Procedure, shortened: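 This was a preventive test: Puccinia recondite f. sp. tritici inoculum was applied one day after compound spray to run-off. Test suspensions were made in 50/50 acetone/water with 250 ppm surfactant, at 200 ppm (800 g/ha equivalent) or 40 ppm. Visual ratings of % disease control relative to controls were made after 24 h of saturated humidity and 7 growth-chamber days, all at 20° C.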

[2] = tested on: Septoria tritici (the causal agent of wheat leaf blotch); experiment: Test B: wheat leaf blotch, preventive spray on wheat seedlings, visual disease rating; conditions: wheat leaf blotch, preventive spray on wheat seedlings
Procedure, shortened: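 Preventive test: Septoria tritici spores applied one day after run-off spraying of seedlings (200 ppm equals 800 g/ha; some tests 40 ppm). After 48 h at 24 °C saturated atmosphere and 19 days at 20 °C, disease scored visually as % control relative to untreated plants.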

[3] = tested on: Botrytis cinerea (the causal agent of tomato Botrytis); experiment: Test C: tomato Botrytis, preventive spray on tomato seedlings, visual disease rating; conditions: tomato Botrytis, preventive spray on tomato seedlings
Procedure, shortened: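 Preventive test: B. cinerea spore inoculation one day after tomato seedlings were sprayed to run-off with compound suspended in 50/50 acetone–water plus 250 ppm surfactant. Plants held 48 h at 20° C in saturated air, then 3 days at 24° C; visual ratings scored 100 (full control) to 0 versus controls; some entries used 40 ppm.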

[4] = tested on: Blumeria graminis f. sp. tritici (also known as Erysiphe graminis f. sp. tritici, the causal agent of wheat powdery mildew); experiment: Test D: wheat powdery mildew, preventive spray on wheat seedlings, visual disease rating; conditions: wheat powdery mildew, preventive spray on wheat seedlings
Procedure, shortened: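 Preventive test: seedlings sprayed to run-off and inoculated with powdery mildew spores one day later. Suspensions were made in 50/50 acetone/water with 250 ppm Trem 014 surfactant (200 ppm equals 800 g/ha). Visual ratings after 8 days at 20 °C give percent disease control versus controls.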

[5] = no asterisk (standard test suspension concentration, not 40 ppm)
[6] = asterisk: 40 ppm test suspension

## Cc1ncn(-c2c(F)cc(F)cc2Cl)c1C(O)c1ccc(F)cc1F (racemic) [compound 12]
[1]; [5]
  Test A rating (100 = 100% disease control, 0 = no disease control relative to the controls): 99%
[2]; [5]
  Test B rating (100 = 100% disease control, 0 = no disease control relative to the controls): 100%
[3]; [5]
  Test C rating (100 = 100% disease control, 0 = no disease control relative to the controls): 95%
[4]; [5]
  Test D rating (100 = 100% disease control, 0 = no disease control relative to the controls): 21%

## Cc1ncc(C(O)c2c(F)cc(F)cc2F)n1-c1ccc(Cl)cc1Cl (centres unmarked) [compound 361]
[1]; [5]
  Test A rating (100 = 100% disease control, 0 = no disease control relative to the controls): 95%
[2]; [5]
  Test B rating (100 = 100% disease control, 0 = no disease control relative to the controls): 15%
[3]; [5]
  Test C rating (100 = 100% disease control, 0 = no disease control relative to the controls): 9%
[4]; [5]
  Test D rating (100 = 100% disease control, 0 = no disease control relative to the controls): 0%

## COc1cc(F)c(C(O)c2c(Br)nc(C)n2-c2ccc(F)cc2Cl)c(F)c1 (centres unmarked) [compound 364]
[1]; [5]
  Test A rating (100 = 100% disease control, 0 = no disease control relative to the controls): 100%
[2]; [5]
  Test B rating (100 = 100% disease control, 0 = no disease control relative to the controls): 100%
[3]; [5]
  Test C rating (100 = 100% disease control, 0 = no disease control relative to the controls): 100%
[4]; [5]
  Test D rating (100 = 100% disease control, 0 = no disease control relative to the controls): 95%

## Cc1nc(Cl)n(-c2ccc(F)cc2Cl)c1C(O)c1ccc(F)cc1F (single isomer, unassigned) [compound 28]
[1]; [5]
  Test A rating (100 = 100% disease control, 0 = no disease control relative to the controls): 100%
[2]; [5]
  Test B rating (100 = 100% disease control, 0 = no disease control relative to the controls): 100%
[3]; [5]
  Test C rating (100 = 100% disease control, 0 = no disease control relative to the controls): 100%
[4]; [5]
  Test D rating (100 = 100% disease control, 0 = no disease control relative to the controls): 71%

## COc1cc(C)c(C(O)c2c(Br)ncn2-c2ccc(F)cc2Cl)cc1Br (racemic) [compound 229]
[1]; [6]
  Test A rating (100 = 100% disease control, 0 = no disease control relative to the controls): 68* %
[2]; [6]
  Test B rating (100 = 100% disease control, 0 = no disease control relative to the controls): 36* %
[3]; [6]
  Test C rating (100 = 100% disease control, 0 = no disease control relative to the controls): 0* %
[4]; [6]
  Test D rating (100 = 100% disease control, 0 = no disease control relative to the controls): 0* %

## Cc1cccc(C)c1-n1c(C)nc(Br)c1C(O)c1ccc(F)cc1Cl (racemic) [compound 225]
[1]; [5]
  Test A rating (100 = 100% disease control, 0 = no disease control relative to the controls): 89%
[2]; [5]
  Test B rating (100 = 100% disease control, 0 = no disease control relative to the controls): 83%
[3]; [5]
  Test C rating (100 = 100% disease control, 0 = no disease control relative to the controls): 37%
[4]; [5]
  Test D rating (100 = 100% disease control, 0 = no disease control relative to the controls): 0%

## COc1ccc(C(O)c2c(Br)nc(C)n2-c2ccc(F)cc2F)c(Cl)c1 (racemic) [compound 285]
[1]; [6]
  Test A rating (100 = 100% disease control, 0 = no disease control relative to the controls): 99* %
[2]; [6]
  Test B rating (100 = 100% disease control, 0 = no disease control relative to the controls): 88* %
[3]; [6]
  Test C rating (100 = 100% disease control, 0 = no disease control relative to the controls): 0* %
[4]; [6]
  Test D rating (100 = 100% disease control, 0 = no disease control relative to the controls): 0* %

## OC(c1ccc(F)cc1Cl)c1c(Cl)nc(C2CC2)n1-c1c(F)cccc1Br (centres unmarked) [compound 151]
[1]; [5]
  Test A rating (100 = 100% disease control, 0 = no disease control relative to the controls): 74%
[2]; [5]
  Test B rating (100 = 100% disease control, 0 = no disease control relative to the controls): 100%
[3]; [5]
  Test C rating (100 = 100% disease control, 0 = no disease control relative to the controls): 0%
[4]; [5]
  Test D rating (100 = 100% disease control, 0 = no disease control relative to the controls): 64%

## OC(c1ccc(F)cc1F)c1c(Cl)nc(Cl)n1-c1ccc(F)cc1F (single isomer, unassigned) [compound 78]
[1]; [5]
  Test A rating (100 = 100% disease control, 0 = no disease control relative to the controls): 100%
[2]; [5]
  Test B rating (100 = 100% disease control, 0 = no disease control relative to the controls): 100%
[3]; [5]
  Test C rating (100 = 100% disease control, 0 = no disease control relative to the controls): 99%
[4]; [5]
  Test D rating (100 = 100% disease control, 0 = no disease control relative to the controls): 82%

## Cc1ncc(C(O)c2c(F)cc(F)cc2F)n1-c1ccc(F)cc1F (centres unmarked) [compound 175]
[1]; [5]
  Test A rating (100 = 100% disease control, 0 = no disease control relative to the controls): 97%
[2]; [5]
  Test B rating (100 = 100% disease control, 0 = no disease control relative to the controls): 3%
[3]; [5]
  Test C rating (100 = 100% disease control, 0 = no disease control relative to the controls): 9%
[4]; [5]
  Test D rating (100 = 100% disease control, 0 = no disease control relative to the controls): 0%

## Cc1ncc(C(O)c2ccc(F)cc2Cl)n1-c1c(F)cccc1Br (centres unmarked) [compound 73]
[1]; [5]
  Test A rating (100 = 100% disease control, 0 = no disease control relative to the controls): 100%
[2]; [5]
  Test B rating (100 = 100% disease control, 0 = no disease control relative to the controls): 100%
[3]; [5]
  Test C rating (100 = 100% disease control, 0 = no disease control relative to the controls): 99%
[4]; [5]
  Test D rating (100 = 100% disease control, 0 = no disease control relative to the controls): 0%

## OC(c1ccc(F)cc1F)c1cnc(C2CC2)n1-c1c(F)cccc1Br (centres unmarked) [compound 152]
[1]; [5]
  Test A rating (100 = 100% disease control, 0 = no disease control relative to the controls): 74%
[2]; [5]
  Test B rating (100 = 100% disease control, 0 = no disease control relative to the controls): 0%
[3]; [5]
  Test C rating (100 = 100% disease control, 0 = no disease control relative to the controls): 0%
[4]; [5]
  Test D rating (100 = 100% disease control, 0 = no disease control relative to the controls): 0%

## Cc1nc(Br)n(-c2c(F)cc(Cl)cc2F)c1C(O)c1ccc(F)cc1F (racemic) [compound 299]
[1]; [6]
  Test A rating (100 = 100% disease control, 0 = no disease control relative to the controls): 100* %
[2]; [6]
  Test B rating (100 = 100% disease control, 0 = no disease control relative to the controls): 100* %
[3]; [6]
  Test C rating (100 = 100% disease control, 0 = no disease control relative to the controls): 100* %
[4]; [6]
  Test D rating (100 = 100% disease control, 0 = no disease control relative to the controls): 87* %

## COc1ccc(C(O)c2cnc(C)n2-c2ccc(F)cc2Br)c(Cl)c1 (centres unmarked) [compound 312]
[1]; [6]
  Test A rating (100 = 100% disease control, 0 = no disease control relative to the controls): 28* %
[2]; [6]
  Test B rating (100 = 100% disease control, 0 = no disease control relative to the controls): 12* %
[3]; [6]
  Test C rating (100 = 100% disease control, 0 = no disease control relative to the controls): 0* %
[4]; [6]
  Test D rating (100 = 100% disease control, 0 = no disease control relative to the controls): 0* %

## Cc1nc(Cl)c(C(O)c2ccc(F)cc2F)n1-c1c(F)cc(F)cc1Br (centres unmarked) [compound 92]
[1]; [5]
  Test A rating (100 = 100% disease control, 0 = no disease control relative to the controls): 100%
[2]; [5]
  Test B rating (100 = 100% disease control, 0 = no disease control relative to the controls): 100%
[3]; [5]
  Test C rating (100 = 100% disease control, 0 = no disease control relative to the controls): 99%
[4]; [5]
  Test D rating (100 = 100% disease control, 0 = no disease control relative to the controls): 95%

## Cc1cccc(Br)c1-n1c(C)nc(Cl)c1C(O)c1ccc(F)cc1Cl (centres unmarked) [compound 336]
[1]; [6]
  Test A rating (100 = 100% disease control, 0 = no disease control relative to the controls): 97* %
[2]; [6]
  Test B rating (100 = 100% disease control, 0 = no disease control relative to the controls): 89* %
[3]; [6]
  Test C rating (100 = 100% disease control, 0 = no disease control relative to the controls): 72* %
[4]; [6]
  Test D rating (100 = 100% disease control, 0 = no disease control relative to the controls): 90* %

## COc1ccc(C(O)c2c(Br)nc(C)n2-c2ccc(F)cc2Br)c(Cl)c1 (centres unmarked) [compound 324]
[1]; [6]
  Test A rating (100 = 100% disease control, 0 = no disease control relative to the controls): 100* %
[2]; [6]
  Test B rating (100 = 100% disease control, 0 = no disease control relative to the controls): 94* %
[3]; [6]
  Test C rating (100 = 100% disease control, 0 = no disease control relative to the controls): 80* %
[4]; [6]
  Test D rating (100 = 100% disease control, 0 = no disease control relative to the controls): 69* %

## Cc1cc(F)ccc1C(O)c1c(C)nc(Cl)n1-c1c(F)cccc1Br (centres unmarked) [compound 209]
[1]; [6]
  Test A rating (100 = 100% disease control, 0 = no disease control relative to the controls): 99* %
[2]; [6]
  Test B rating (100 = 100% disease control, 0 = no disease control relative to the controls): 100* %
[3]; [6]
  Test C rating (100 = 100% disease control, 0 = no disease control relative to the controls): 100* %
[4]; [6]
  Test D rating (100 = 100% disease control, 0 = no disease control relative to the controls): 42* %

## COc1cc(F)c(C(O)c2c(Br)nc(Br)n2-c2ccc(F)cc2Cl)c(F)c1 (racemic) [compound 235]
[1]; [6]
  Test A rating (100 = 100% disease control, 0 = no disease control relative to the controls): 100* %
[2]; [6]
  Test B rating (100 = 100% disease control, 0 = no disease control relative to the controls): 100* %
[3]; [6]
  Test C rating (100 = 100% disease control, 0 = no disease control relative to the controls): 100* %
[4]; [6]
  Test D rating (100 = 100% disease control, 0 = no disease control relative to the controls): 99* %

## Cc1nc(Cl)n(-c2ccc(Cl)cc2Cl)c1C(O)c1c(F)cc(Cl)cc1F (racemic) [compound 36]
[1]; [5]
  Test A rating (100 = 100% disease control, 0 = no disease control relative to the controls): 99%
[2]; [5]
  Test B rating (100 = 100% disease control, 0 = no disease control relative to the controls): 100%
[3]; [5]
  Test C rating (100 = 100% disease control, 0 = no disease control relative to the controls): 98%
[4]; [5]
  Test D rating (100 = 100% disease control, 0 = no disease control relative to the controls): 0%
